# Measurements reported in US12678418B2, “Compositions and methods for the treatment of threatened respiratory failure caused by coronavirus infection and disease” (ENCYT TECHNOLOGIES, INC., priority 2020, dated 2026).
# “Also recorded” adds a separate entry of the source. Read-outs that look alike come from different tables or passages of the source. Ends that are not written are not given here.
# Columns and labels:
# Neu1 sialidase [1] = experiment: Sialidase activity in live RAW-blue macrophage cells, 4-MUNANA substrate (Example 1); format: cell-based, mouse; settings: for inhibition of sialidase activity associated with S-protein: FIG. 2B; for inhibition of sialidase activity associated with S-protein / inhibition of sialidase activity associated with S-protein (UK variant): inhibitor 200 μg/mL, 0.318 mM 4-MUNANA; for inhibition of sialidase activity associated with S-protein (UK variant): FIG. 2C
# Neu1 sialidase [2] = molecular target: T1, Neu1 sialidase (Mus musculus, UniProt O35657); format: cell-based; settings: for inhibition of lipopolysaccharide (LPS) induced sialidase activity: live BMC-2 macrophage cells, 1-2 mM, compared to LPS positive control; for inhibition of sialidase (Neu1) activity associated with TLR ligand treated live macrophage cells: cell surface of macrophage and dendritic cells
# T1 construct: […]; endogenous in cells; host or cells: BMC-2 macrophage cells
# Excerpt: Central to this process is that Neu1 and not Neu2,-3 and -4 forms a complex with TLR-2,-3 and -4 on the cell surface of naïve macrophage cells. […] Endotoxin LPS binding to TLR4 induces Neu1 with subsequent activation of NFκB and the production of nitric oxide and proinflammatory IL-6 and TNFα cytokines in primary and macrophage cell lines.
# Neu1 sialidase [3] = molecular target: T1, Neu1 sialidase; settings: cited from earlier work; for inhibition of the LPS-induced sialidase activity: live BMC-2 macrophage cells
# Neu1 = settings: live macrophage cell lines and primary bone marrow macrophage cells from wild-type mice, not from Neu1-deficient mice; cited from earlier work
# MMP13 = MMP13 (Homo sapiens, UniProt P45452); settings: cited from earlier work
# MMP1 = molecular target: T2, MMP1 (Homo sapiens, UniProt P03956); settings: read-out: IC50 for MMP1; cited from earlier work
# T2 sequence (P03956 100-469): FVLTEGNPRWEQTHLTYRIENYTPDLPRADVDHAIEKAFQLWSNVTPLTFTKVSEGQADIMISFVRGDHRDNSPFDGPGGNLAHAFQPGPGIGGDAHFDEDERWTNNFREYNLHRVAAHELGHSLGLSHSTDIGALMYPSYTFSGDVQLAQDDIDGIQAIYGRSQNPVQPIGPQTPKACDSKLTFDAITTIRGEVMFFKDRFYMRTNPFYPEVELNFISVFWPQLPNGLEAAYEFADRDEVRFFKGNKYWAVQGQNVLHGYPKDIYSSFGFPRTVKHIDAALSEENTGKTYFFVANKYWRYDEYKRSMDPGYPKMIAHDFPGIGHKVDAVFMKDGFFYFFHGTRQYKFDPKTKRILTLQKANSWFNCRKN
# carboxylesterase = carboxylesterase (Homo sapiens, UniProt P23141); settings: previously determined; cited from earlier work
# carboxylesterase, sequence (P23141 18-567): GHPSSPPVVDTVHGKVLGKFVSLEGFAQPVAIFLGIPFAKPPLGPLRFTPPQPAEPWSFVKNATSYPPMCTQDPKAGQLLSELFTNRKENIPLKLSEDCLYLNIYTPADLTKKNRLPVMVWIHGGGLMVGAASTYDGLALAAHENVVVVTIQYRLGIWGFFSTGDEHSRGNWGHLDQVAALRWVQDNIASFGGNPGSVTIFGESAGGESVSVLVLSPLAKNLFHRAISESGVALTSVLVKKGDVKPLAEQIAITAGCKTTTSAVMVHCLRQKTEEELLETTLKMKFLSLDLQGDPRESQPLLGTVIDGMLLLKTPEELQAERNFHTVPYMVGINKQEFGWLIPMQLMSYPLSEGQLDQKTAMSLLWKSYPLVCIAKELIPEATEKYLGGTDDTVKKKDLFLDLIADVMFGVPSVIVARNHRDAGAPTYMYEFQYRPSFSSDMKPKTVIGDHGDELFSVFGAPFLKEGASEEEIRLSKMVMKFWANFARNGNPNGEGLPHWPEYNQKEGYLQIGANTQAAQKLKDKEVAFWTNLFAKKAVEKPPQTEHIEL
# [4] = molecular target: LPS induced sialidase activity in live BMA macrophage cells (Mus musculus, UniProt O35657); settings: clopidogrel bisulfate 280 μM and 500 μM for 2 min, 5 μg/ml LPS, 400 μM OP
# [5] = system: SEAP gene inducible by NF-kB and AP-1 in RAW-Blue cells; experiment: SEAP reporter assay in RAW-Blue cells (Example 2); format: cell-based, mouse; settings: for expression of SEAP (reflective of NF-kB expression): FIG. 3A-3D, various concentrations
# Procedure: RAW-Blue™ cells (mouse macrophage reporter cell line, Invivogen, San Diego CA) derived from RAW 264.7 macrophages were grown in a culture medium under the selection of Zeocin™. The cells stably express a secreted embryonic alkaline phosphatase (SEAP) gene inducible by NF-kB and AP-1 transcription factors. Upon stimulation, RAW-Blue™ cells activate NF-kB and AP-1 leading to the secretion of SEAP, which is detectable and measurable using QUANTI-Blue™, a SEAP detection medium (Invivogen). Supernatants (20 uL) after 24 hr reaction from treated RawBlue cells is added to QuantiBlue reagent (180 uL), and the readout of color reaction was done after 6 hrs. QUANTI-Blue™ is a colorimetric enzyme assay developed to determine the activity of any alkaline phosphatase present in a biological sample (supernatants) and was prepared according to manufacturer's instructions. RAW-Blue™ cells are resistant to Zeocin™ and G418.
# A cell suspension of 550,000 RAW-blue cells/mL in fresh growth medium was prepared, and 180 μL of cell suspension (~100,000 cells) was added to each well of a Falcon flat-bottom 96-well plate (Becton Dickinson). After different incubation times, indicated dosages of LPS, bradykinin, angiotensin 1-7, neuropeptide FF, and S-protein alone or together with indicated dose-dependent OP were added to each well. The plates were incubated at 37° C. in a 5% CO2 incubator for 18-24 h. 180 μL of QUANTI-Blue™ solution was added to each well of a flat-bottom 96-well plate, followed by 20 μL of supernatant from stimulated RAW-blue cells. The plate was incubated for 30 min to 3 h at 37° C. and the SEAP levels were determined using a spectrophotometer at 620-655 nm. Each experiment was performed in triplicate.
# MMP3 = MMP3 (Homo sapiens, UniProt P08254); settings: cited from earlier work
# MMP3, sequence (P08254 100-477, species assumed): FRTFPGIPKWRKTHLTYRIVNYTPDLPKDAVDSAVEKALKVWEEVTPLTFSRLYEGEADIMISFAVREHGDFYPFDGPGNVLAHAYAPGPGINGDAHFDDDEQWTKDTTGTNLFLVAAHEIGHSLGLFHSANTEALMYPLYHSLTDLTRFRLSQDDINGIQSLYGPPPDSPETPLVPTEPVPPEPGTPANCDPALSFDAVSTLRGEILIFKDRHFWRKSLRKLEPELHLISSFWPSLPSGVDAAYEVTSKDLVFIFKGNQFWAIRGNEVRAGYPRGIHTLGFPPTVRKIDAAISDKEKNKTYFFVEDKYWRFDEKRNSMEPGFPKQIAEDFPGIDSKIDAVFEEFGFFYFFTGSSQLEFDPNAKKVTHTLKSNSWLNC
# [6] = system: NFκB activation, nitric oxide, IL-6 and TNFα in primary or macrophage cell lines; settings: cited from earlier work
# [7] = cited from earlier work
# [8] = system: NFκB activation, nitric oxide, IL-6 and TNFα in primary or macrophage cell lines; experiment: LPS/TLR ligand induced NFκB activation, nitric oxide and pro-inflammatory cytokines in macrophage cells; format: cell-based; settings: macrophage and dendritic cells
# Excerpt: Thus, there is evidence that the activation of Neu1 sialidase in complex with TLR-2,-3 and -4 receptors on the cell surface of macrophages is inhibited by the neuraminidase inhibitor OP. […] On the basis that Mas GPCR potentiates receptor biased-induced TLR transactivation via NMBR-Neu1-MMP9 crosstalk on the cell surface alveolar macrophages, then OP will inhibit the pro-inflammatory responses in the lungs and reduce the inflammatory process.
# [9] = molecular target: mammalian neuraminidase 1 (Homo sapiens, UniProt Q99519); experiment: Aspirin with OP on mammalian neuraminidase 1
# neuraminidase 1 = molecular target: T3, neuraminidase 1 (Homo sapiens, UniProt Q99519); experiment: Neu-1 activity in live PANC-1 cells stimulated with EGF; format: cell-based; settings: FIG. 5; aspirin 1.6 mM-6.4 mM, 30 ng/mL EGF, 0.318 mM 4-MUNANA
# T3 construct: endogenous in cells; host or cells: PANC-1
# Procedure: Live PANC-1 cells were pre-treated with increasing concentrations of aspirin (1.6 mM-6.4 mM), followed by stimulation with 30 ng/mL of EGF to initiate Neu-1 activity. 0.318 mM 4-MUNANA substrate was added to quantify Neu-1 activity.
# Neu1 sialidase [10] = settings: 2 mM, lysates from mature dendritic cells; cited from earlier work
# Neu3 sialidase = settings: 2 mM, lysates from mature dendritic cells; cited from earlier work
# human Neu3 sialidase = molecular target: T4, human Neu3 sialidase (Homo sapiens, UniProt Q9UQ49); settings: micromolar range; cited from earlier work
# T4 sequence (Q9UQ49 1-428): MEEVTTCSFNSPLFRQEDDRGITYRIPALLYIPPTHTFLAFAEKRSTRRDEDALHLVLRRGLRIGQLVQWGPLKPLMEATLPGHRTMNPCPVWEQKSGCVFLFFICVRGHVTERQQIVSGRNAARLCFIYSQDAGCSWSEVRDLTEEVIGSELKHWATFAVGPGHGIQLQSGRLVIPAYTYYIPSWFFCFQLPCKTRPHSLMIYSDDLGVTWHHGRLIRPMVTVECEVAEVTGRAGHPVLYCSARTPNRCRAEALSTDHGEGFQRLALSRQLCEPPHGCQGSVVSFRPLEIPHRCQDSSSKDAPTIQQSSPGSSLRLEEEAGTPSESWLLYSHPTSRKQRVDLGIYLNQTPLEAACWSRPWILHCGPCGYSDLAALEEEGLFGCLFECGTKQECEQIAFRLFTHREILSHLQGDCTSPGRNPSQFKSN
# MMP9 = MMP9 (Homo sapiens, UniProt P14780); settings: cited from earlier work
# MMP9, sequence (P14780 94-707, species assumed): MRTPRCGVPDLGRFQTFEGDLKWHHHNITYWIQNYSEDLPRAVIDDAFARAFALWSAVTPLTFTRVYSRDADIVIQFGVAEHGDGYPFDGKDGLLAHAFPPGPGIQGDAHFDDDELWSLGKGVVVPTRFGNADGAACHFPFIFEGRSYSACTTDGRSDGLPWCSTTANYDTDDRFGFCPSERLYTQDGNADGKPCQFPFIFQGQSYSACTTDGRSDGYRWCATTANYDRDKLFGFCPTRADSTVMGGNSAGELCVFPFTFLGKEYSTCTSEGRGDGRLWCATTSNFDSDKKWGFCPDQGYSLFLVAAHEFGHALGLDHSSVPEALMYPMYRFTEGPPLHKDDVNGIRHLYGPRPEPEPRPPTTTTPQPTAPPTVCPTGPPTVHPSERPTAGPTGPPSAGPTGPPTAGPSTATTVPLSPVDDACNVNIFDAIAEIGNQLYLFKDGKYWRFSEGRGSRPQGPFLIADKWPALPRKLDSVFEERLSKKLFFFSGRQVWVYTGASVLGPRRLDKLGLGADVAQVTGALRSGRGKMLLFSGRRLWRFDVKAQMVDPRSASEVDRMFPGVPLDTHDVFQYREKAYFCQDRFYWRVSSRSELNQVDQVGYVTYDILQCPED
# MMP7 = MMP7 (Homo sapiens, UniProt P09237); settings: read-out: IC50 for MMP7; cited from earlier work
# MMP7, sequence (P09237 95-267, species assumed): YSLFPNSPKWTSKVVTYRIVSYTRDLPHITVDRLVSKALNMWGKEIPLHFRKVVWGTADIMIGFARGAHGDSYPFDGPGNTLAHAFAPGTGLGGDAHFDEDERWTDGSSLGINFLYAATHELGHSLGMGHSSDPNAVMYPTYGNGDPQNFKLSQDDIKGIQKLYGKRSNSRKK
compound,measurement,setting,value
N[C@@H](CS)C(=O)N1CCn2cc(-c3ccccc3)nc2[C@@H]1CC1CCCCC1 [BIM-46174],inhibition of sialidase activity triggered by recombinant S protein and LPS,Neu1 sialidase [1],inhibited
same,inhibition of sialidase activity associated with S-protein,Neu1 sialidase [1],inhibited
same,inhibition of sialidase activity associated with S-protein (UK variant),Neu1 sialidase [1],inhibited
CCC(CC)[C@H](NC(C)=O)[C@@H]1C[C@@H](C(=O)O)C[C@H]1N=C(N)N [BCX1827],inhibition of lipopolysaccharide (LPS) induced sialidase activity,Neu1 sialidase [2],limited effect
same,inhibition of the LPS-induced sialidase activity,Neu1 sialidase [3],limited significant inhibition
"angiotensin-1 (DRVYIHPFHL; Angiotensin-1; UniProt P01019 25-34, looked up) [GPCR agonist]",induction of Neu1 activity,Neu1,induce Neu1 activity
CCN(CC)Cc1cc(C)c(N(Cc2ccccc2)S(=O)(=O)c2ccc(OC)cc2)c(C(=O)NO)c1 [MMP9 inhibitor],inhibition of sialidase activity associated with S-protein,Neu1 sialidase [1],inhibited
same,inhibition of sialidase activity associated with S-protein (UK variant),Neu1 sialidase [1],inhibited
same,IC50,MMP13,113 nM
same,IC50,MMP1,1050 nM
COC(=O)[C@H](c1ccccc1Cl)N1CCc2sccc2C1 [clopidogrel],inhibition of the hydrolysis of OP by carboxylesterase,carboxylesterase,≤ 90%
same,effect on OP's capacity to inhibit LPS induced sialidase activity,[4],no effect
CC(C)CCC[C@@H](C)[C@H]1CC[C@H]2[C@@H]3CC=C4C[C@@H](O)CC[C@]4(C)[C@H]3CC[C@]12C [cholesterol],induction of Neu1 activity,Neu1,induce Neu1 activity
lysophosphatidic acid,induction of Neu1 activity,Neu1,induce Neu1 activity
"angiotensin-2: GPCR agonist, printed as 'angiotensin-1 and -2' (DRVYIHPF; Angiotensin-2; UniProt P01019 25-32, looked up)",induction of Neu1 activity,Neu1,induce Neu1 activity
"angiotensin 1-7 (DRVYIHP; Angiotensin 1-7; UniProt P01019 25-31, looked up)",expression of SEAP (reflective of NF-kB expression),[5],triggered increased expression of SEAP
same,induction of sialidase activity,"Neu1 sialidase [1]; FIG. 2A, agonist 20 μg/mL",induces Sialidase activity
"CC(=O)N[C@H]1[C@H]([C@H](O)[C@H](O)CO)OC(C(=O)O)=C[C@@H]1O [DANA, 2-deoxy-2,3-dehydro-N-acetylneuraminic acid]",inhibition of lipopolysaccharide (LPS) induced sialidase activity,Neu1 sialidase [2],limited effect
same,inhibition of the LPS-induced sialidase activity,Neu1 sialidase [3],limited significant inhibition
CNC(=O)[C@H](Cc1c[nH]c2ccccc12)NC(=O)[C@@H](CC(=O)NO)CC(C)C [Galardin],IC50,MMP3,27 nM
thrombin,induction of Neu1 activity,Neu1,not
"CCOC(=O)C1=C[C@@H](OC(CC)CC)[C@H](NC(C)=O)[C@@H](N)C1.O=P(O)(O)O [OP, (3R,4R,5S)-4-acetylamino-5-amino-3-(1-ethylpropoxy)1-cyclohexene-1-carboxylic acid, ethyl ester, phosphate (1:1)]",inhibition of sialidase (Neu1) activity associated with TLR ligand treated live macrophage cells,Neu1 sialidase [2],most potent; also recorded: potent inhibitor
same,inhibition of sialidase (Neu1) activity associated with TLR ligand treated live macrophage cells,Neu1 sialidase [2]; listed as oseltamivir phosphate,specifically inhibits
same,inhibition of S-protein triggered activity by SEAP reporter assay,"[5]; FIG. 4C, S-protein 10 ug/mL, OP at indicated concentrations",significantly decreased; also recorded: inhibited sialidase activity in a dose dependent manner
same,inhibition of endotoxin LPS induced NFκB activation and production of nitric oxide and pro-inflammatory IL-6 and TNFα cytokines,[6],significantly inhibited
same,inhibition of sialidase activity triggered by recombinant S protein and LPS,Neu1 sialidase [1],blocked
same,inhibition of sialidase activity associated with S-protein,Neu1 sialidase [1],inhibited
same,inhibition of sialidase activity associated with S-protein (UK variant),Neu1 sialidase [1],inhibited
same,solubility in water,[7],soluble in water
same,OP blockage of LPS-induced Neu1 sialidase activity after clopidogrel pretreatment,Neu1 sialidase [3]; BMC-2 cells pretreated with anti-carboxylesterase agent clopidogrel,not affected
same,inhibition of the LPS-induced sialidase activity,Neu1 sialidase [3],completely blocks
same,"block of TLR ligand induced NFkB activation, nitric oxide (NO) production and pro-inflammatory cytokines",[8],blocks
CC(=O)Oc1ccccc1C(=O)O [aspirin],inhibition of mammalian neuraminidase 1 by aspirin together with OP,[9],potentiates the ability of OP to inhibit mammalian neuraminidase 1
same,reduction in Neu-1 activity,neuraminidase 1,substantial reduction
"CC(=O)N[C@H]1[C@H]([C@H](O)[C@H](O)CO)OC(C(=O)O)=C[C@@H]1N=C(N)N [zanamivir, 4-guanidino-Neu5Ac2en]",inhibition of Neu1 sialidase activity,Neu1 sialidase [10],completely inhibited
same,inhibition of lipopolysaccharide (LPS) induced sialidase activity,Neu1 sialidase [2],limited effect
same,inhibition of Neu3 sialidase activity,Neu3 sialidase,completely inhibited
same,inhibition of the LPS-induced sialidase activity,Neu1 sialidase [3],limited significant inhibition
same,inhibition of human Neu3 sialidase,human Neu3 sialidase,significantly inhibited
C1CNCCN1 [PIPZ],IC50,MMP3,18.4 nM
same,IC50,MMP9,2.7 nM
same,IC50,MMP7,30 nM
same,IC50,MMP1,24 nM
"neuropeptide FF (FLFQPQRF; ends and bridges not checked; UniProt O15130 69-76, looked up) [MAS agonist]",expression of SEAP (reflective of NF-kB expression),[5],triggered increased expression of SEAP
